Data from patent US20170266218A1, “NAD+ COENZYME FORMULATION AND METHODS OF MAKING AND USING THE SAME” (Steve McNerlin, priority 2016, published 2017).

Experiments:
[1] = Applicant's finding on therapeutic activity of NAD+ versus NADH for the disclosed uses
Source text: As such, Applicant believes NAD+ alone is responsible for the activities disclosed herein. […] Applicant therefore defines NADH as having a negative net NAD+ value.

[2] = cited from earlier work
[3] = tested on: hair growth (follicular stimulation; SIRT1 enzyme); test: Database trial: weekly scalp micro injections of SIRT1 activator (NAD+), hair growth followed by trichoscan; format: in vivo, human
Description: All six patients underwent weekly micro injections to the subcutaneous fatty layer of the affected layer of the scalp using 4 ml of a SIRT1 Activator (NAD+) over a 24 week period using a commercially available Biophymed CE certified U225 mesotherapy device. The SIRT 1 activator was specially prepared from our written protocol.
Patients were followed for safety and tolerability as well as for monitoring differences in hair growth. In order to track progress over time, we employed global photography, and a 60 second patient observational assessment tool based on a standardized 60 second hair count protocol, haircount and trichoscan analysis (Fotofinder); Trichoscan analysis allows us to quantitatively track the following parameters: hair count, hair density, anagen/telogen rates, along with cumulative hair thickness Patients were asked to return to the clinic at 6 weeks, 12 weeks after the intervention.

Row | SMILES | therapeutic effectiveness for the uses disclosed [1] | stability of solutions ([2]; 4° C. and neutral pH) | stability of solutions in acids or alkalis ([2]; acids or alkalis) | average increase in hair count ([3]; 12 week trichoscan parameters, six patients, weekly micro injections of 4 ml to subcutaneous fatty layer of scalp) [%] | preliminary results of hair growth trial ([3]; overall conclusion of the trial)
1 | NC(=O)c1ccc[n+]([C@@H]2O[C@H](COP(=O)([O-])OP(=O)(O)OC[C@H]3O[C@@H](n4cnc5c(N)ncnc54)[C@H](O)[C@@H]3O)[C@@H](O)[C@H]2O)c1 [NAD+, Nicotinamide adenine dinucleotide] | therapeutically effective | stable for about a week | decompose rapidly | 21 | statistically significant and positive
2 | NC(=O)C1=CN([C@@H]2O[C@H](COP(=O)(O)OP(=O)(O)OC[C@H]3O[C@@H](n4cnc5c(N)ncnc54)[C@H](O)[C@@H]3O)[C@@H](O)[C@H]2O)C=CC1 [NADH, reference compound] | entirely inactive |  |  |  | 
